Reference: patent publication US20250368629A1, “FLAVONOID COMPOUNDS AND METHODS AND MATERIALS FOR USING FLAVONOID COMPOUNDS TO TREAT FIBROTIC CONDITIONS” (Mayo Foundation for Medical Education and Research, priority 2022, published 2025)

Experiments:
[1] = system: Human adult lung fibroblasts (passage 3); assay: Fibroblast activation (TGFβ, alpha-smooth muscle actin); assay type: cell-based; conditions: +2 ng/mL TGFβ, 96 hours, alpha-smooth muscle actin intensity
Description: Human adult lung fibroblasts (passage 3) were plated into 96-well plates and treated with the indicated compound (6-point dose-response) +2 ng/mL TGFβ to stimulated fibroblast activation. Cells were incubated for 96 hours, fixed using 4% PFA, permeabilized using 0.25% triton x-100, and stained using a primary antibody recognizing alpha-smooth muscle actin and a secondary fluorescent conjugated antibody, and DAPI. Cells were then imaged using a 4× objective on a Cytation5 microscope and alpha-smooth muscle actin intensity was quantified using automated software (Biotek Gen5). Data shown are the IC50 values for each compounds efficacy at reducing expression of alpha-smooth muscle actin, calculated from the calculated dose-response curves, N=3 independent.

[2] = system: low passage proliferating fibroblasts; assay: Apoptosis of low passage proliferating lung fibroblasts (cleaved caspase-3, DAPI); assay type: cell-based, human; conditions: low passage proliferating fibroblasts from the same donor, 96 hours, 6-point dose-response, N=3; for EC50: read-out: Proliferating fibroblast apoptosis EC50
Description: (§1) Human adult lung fibroblasts were replicatively passaged until senescence (confirmed by RNA and senescence associated beta galactosidase staining). In a parallel experiment, low passage proliferating fibroblasts from the same donor were compared. Cells were plated into 96-well plates and treated with the indicated compound (6-point dose-response) and incubated for 96 hours. Cells were then fixed using 4% PFA, permeabilized using 0.25% triton x-100, and nuclear stained using a primary antibody for cleaved caspase-3, secondary fluorescence conjugated antibody, and DAPI. Cells were then imaged using a 4× objective on a Cytation5 microscope and cell counts were quantified using automated software (Biotek Gen5). Data shown are the EC50 values calculated for each compounds efficacy to induce apoptosis in senescence vs. proliferating lung fibroblasts, from the calculated dose-response curves, N=3 independent experiments.

[3] = system: senescent human adult lung fibroblasts; assay: Apoptosis of senescent lung fibroblasts (cleaved caspase-3, DAPI); assay type: cell-based; conditions: replicatively senescent human adult lung fibroblasts, 96 hours, 6-point dose-response, N=3; for EC50: read-out: Senescent fibroblast apoptosis EC50
Description: as §1

in vitro = in vitro ADME; conditions: rat; for Plasma bound / Plasma unbound: 4 h
Description: Plasma protein binding assays were also performed (Table 2). Compounds were incubated with rat plasma for 4 hours. The percent of F-4N recovered was analyzed by LC-MS. Warfarin was used as a control for a compound with high plasma protein binding. Analysis performed by Cyprotex (Framingham, MA).

col1a2-mTmG mice = assay: Bleomycin injury and lung fibrosis, flow sorted lung cell populations, qPCR; assay type: in vivo, mouse; conditions: daily from day 10 after bleomycin injury, lungs sorted on day 14
Description: Seven days prior to injury col1a2-mTmG mice were treated with tamoxifen to turn on GFP expression in collagen producing fibroblasts. F-19 was administered daily starting on day 10 after injury, lungs were isolated, and lung tissue was flow sorted for fibroblasts, epithelial cells, and leukocytes on day 14. The sorted cells were subjected to RNA isolation followed by qPCR analysis of the indicated genes in each population of cells. N=3 mice/group.

wild type mice = assay: Comparative flavonoid efficacy and toxicity in aged brain and liver (real-time PCR); assay type: in vivo, mouse
Excerpt: Five-month-old and twenty-eight month old wild type mice were oral gavage treated with the indicated concentrations of flavonoids (F, Q, compound 19, or compound 20) or vehicle for four consecutive days and were euthanized one week later.

DRAK1 = target: T1, DRAK1 (Homo sapiens, UniProt Q9UEE5); assay: DRAK1 kinase activity assay (radiolabeled ATP, Reaction Biology); assay type: biochemical; conditions: FIG. 30
T1 construct: purchased Reaction Biology
T1 sequence (Q9UEE5 1-414): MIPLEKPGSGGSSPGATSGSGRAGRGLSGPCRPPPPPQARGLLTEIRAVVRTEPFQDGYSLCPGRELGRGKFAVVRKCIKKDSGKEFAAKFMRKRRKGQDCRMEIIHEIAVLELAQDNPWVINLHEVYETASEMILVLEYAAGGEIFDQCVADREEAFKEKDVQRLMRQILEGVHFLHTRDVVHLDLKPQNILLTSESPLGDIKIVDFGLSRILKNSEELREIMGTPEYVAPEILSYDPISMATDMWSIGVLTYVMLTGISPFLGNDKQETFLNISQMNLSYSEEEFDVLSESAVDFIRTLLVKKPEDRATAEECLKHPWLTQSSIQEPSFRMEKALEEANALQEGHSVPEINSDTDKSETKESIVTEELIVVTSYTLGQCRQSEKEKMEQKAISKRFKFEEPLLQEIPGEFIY
Description: DRAK1 kinase activity was also assessed. […] A DRAK1 kinase activity was performed by Reaction Biology. DRAK1 kinase activity was measured and plotted (FIG. 30).

[4] = system: Human adult lung fibroblasts (passage 3); assay: TGFβ stimulated collagen deposition; assay type: cell-based; conditions: +2 ng/mL TGFβ, 96 hours
Description: (§2) For senescent fibroblast survival experiments, human adult lung fibroblasts were replicatively passaged until senescence (confirmed by RNA and senescence associated beta galactosidase staining). Cells were then plated into 96-well plates and treated with the indicated compound and incubated for 96 hours. Cells were then fixed using 4% PFA, permeabilized using 0.25% triton x-100, and nuclear stained using DAPI. Cells were then imaged using a 4× objective on a Cytation5 microscope and cell counts were quantified using automated software (Biotek Gen5). Data shown are plotted as % survival, normalized to the vehicle treated well. Mean+/−SEM, N=3 independent experiments. For the TGFβ stimulated collagen deposition experiments (square datapoints), human adult lung fibroblasts (passage 3) were plated into 96-well plates and treated with the indicated compound +2 ng/mL TGFβ to stimulated collagen expression. Cells were incubated for 96 hours, fixed using 4% PFA, permeabilized using 0.25% triton x-100, and stained using a primary antibody recognizing type I collagen and a secondary infrared conjugated antibody. Wells were then imaged at 1× using a Odyssey Lx (LI-CORE) infrared imager and collagen intensity was quantified using automated software. Data shown are plotted as % collagen intensity, normalized to the vehicle treated well. Mean+/−SEM, N=3 independent experiments.

[5] = system: senescent human adult lung fibroblasts; assay: Senescent fibroblast survival (DAPI cell counts); assay type: cell-based; conditions: 96 hours, 3 point and 6-point dose response
Description: as §2

Row | SMILES | EC50 [1] [µM] | EC50 [2] [µM] | EC50 [3] [µM] | also measured
1 | CCOc1ccc(-c2oc3ccccc3c(=O)c2O)cc1OC [F-19(3MeOH)] | 6.4 | 10.5 | – | –
2 | O=c1c(O)c(-c2ccc(OCc3cccnc3)cc2)oc2ccccc12 [F—3N] | – | – | 44.1 | Fibroblast activation (EC50) [1]: inactive; Proliferating fibroblast apoptosis EC50 [2]: inactive
3 | CC(=O)CC(c1ccccc1)c1c(O)c2ccccc2oc1=O (stereo not shown) [Warfarin] | – | – | – | recovery at 4 h, 2 μM (in vitro): 100%; Plasma bound (in vitro; 2 μM): 99%; Plasma unbound (in vitro; 2 μM): 0.971%
4 | O=c1c(O)c(-c2ccc(OCc3ccccn3)cc2)oc2ccccc12 [F—2N] | – | – | – | Fibroblast activation (EC50) [1]: inactive; Proliferating fibroblast apoptosis EC50 [2]: inactive; Senescent fibroblast apoptosis EC50 [3]: inactive
5 | COc1ccc2oc(-c3ccc(OCc4ccccc4)cc3)c(O)c(=O)c2c1 [6-MeOH—F-20] | 2 | 5.1 | 0.8 | –
6 | CCOc1ccc(-c2oc3ccccc3c(=O)c2O)cc1 [F-19] | 2.4 | 24.5 | 2.4 | senescence markers or inflammatory cytokines in leukocytes (CD45+ cells), qPCR (col1a2-mTmG mice): No changes
7 | O=c1c(O)c(-c2ccc(O)c(O)c2)oc2cc(O)cc(O)c12 [Quercetin, quercetin] | – | – | – | recovery at 4 h, 5 μM (in vitro): 0.8%; Plasma bound (in vitro; 5 μM): 95%; Plasma unbound (in vitro; 5 μM): 5.0%; CD68 expression (indicator of inflammatory activation) in brain or liver (wild type mice; oral gavage four consecutive days, euthanized one week later): lack of drug-induced toxicity
8 | COc1cccc2oc(-c3ccc(OCc4ccccc4)cc3)c(O)c(=O)c12 [5-MeOH—F-20] | 0.9 | 5.5 | 0.35 | –
9 | O=c1c(O)c(-c2ccc(OCC3CC3)cc2)oc2ccccc12 [F—CP] | 1.1 | 10.9 | 0.9 | –
10 | COc1cccc2oc(-c3ccc(OCc4ccncc4)cc3)c(O)c(=O)c12 [5-MeOH—F—4N] | 2.1 | – | – | Proliferating fibroblast apoptosis EC50 [2]: inactive; DRAK1 kinase activity (DRAK1): inactive; Senescent fibroblast apoptosis EC50 [3]: inactive
11 | O=c1c(O)c(-c2ccc(OCc3ccccc3)cc2)oc2ccccc12 [F-20] | 2 | 27.6 | 1.5 | –
12 | CCOc1ccc(-c2oc3ccc(C)cc3c(=O)c2O)cc1OC [2-(4-ethoxy-3-methoxyphenyl)-3-hydroxy-6-methylchromen-4-one] | – | – | – | TGFβ stimulated collagen deposition (in words) [4]: blocked collagen deposition; senescent fibroblast survival (in words) [5]: effective toxicity against senescent cells
13 | CCOc1ccc(-c2oc3ccccc3c(=O)c2O)cc1OCC [2-(3,4-diethoxyphenyl)-3-hydroxy-4h-1-benzopyran-4-one] | – | – | – | TGFβ stimulated collagen deposition (in words) [4]: blocked collagen deposition; senescent fibroblast survival (in words) [5]: effective toxicity against senescent cells
14 | CCCOc1ccc(-c2oc3ccccc3c(=O)c2O)cc1 [F-19(Me)] | 4 | 19.5 | 3.4 | –
15 | O=c1c(O)c(-c2ccc(O)c(O)c2)oc2cc(O)ccc12 [fisetin] | – | – | – | CD68 expression (indicator of inflammatory activation) in brain or liver (wild type mice; mouse, in vivo, po): lack of drug-induced toxicity
16 | CCOc1ccc(-c2oc3ccc(OC)cc3c(=O)c2O)cc1 [6-MeOH—F-19] | 4 | 15.1 | 2.7 | –
